Results on six compounds are retold here after patent US7683181B2, “Cyclic N-[1,3,4]-thiadiazol-2-yl-benzene sulfonamides, pharmaceutical compositions and methods for the therapeutic use thereof” (Sanofi-aventis, priority 2005, dated 2010).

Usually EC50 stands for the concentration at which the effect is half-maximal.

Bounds are passed on as bounds.

For test [1], the system named is PPARdelta. The following applies: diabetic animal model; cited from earlier work.
Test [2] concerns PPARdelta. The following applies: obese, insulin resistant rhesus monkeys; cited from earlier work.
The next test concerns the target T1, human PPARdelta (Homo sapiens, UniProt Q03181).
T1 construct: amino acids S139-Y441; expressed in transfected cells
T1 sequence (Q03181 139-441): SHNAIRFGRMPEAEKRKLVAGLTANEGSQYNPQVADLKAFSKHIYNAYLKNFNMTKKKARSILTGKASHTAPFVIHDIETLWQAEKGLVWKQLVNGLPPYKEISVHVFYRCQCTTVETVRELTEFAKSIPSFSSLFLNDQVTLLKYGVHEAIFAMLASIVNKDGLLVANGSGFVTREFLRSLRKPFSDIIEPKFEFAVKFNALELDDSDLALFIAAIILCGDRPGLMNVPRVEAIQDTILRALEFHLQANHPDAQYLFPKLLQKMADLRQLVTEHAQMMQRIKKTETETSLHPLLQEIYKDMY
The test is described as follows: cellular PPARdelta assay (stably transfected HEK luciferase reporter cell line). The following applies: GR-GAL4-humanPPARdelta-LBD. The format is cell-based. As for the experimental part:
The assay plates are incubated in an incubator at 37° C. and 5% CO2 for 24 h. […]
The raw data from the luminometer are transferred into a Microsoft Excel file. Dose-effect plots and EC50 values of PPAR agonists are calculated using the XL.Fit program as specified by the manufacturer (IDBS).
The potency of substances which bind to human PPARdelta and activate it in an agonistic manner was analyzed through the determination of the EC50 values of PPAR agonists in the cellular PPARdelta assay using a stably transfected HEK cell line (HEK=human embryo kidney) which is referred to here as PPARdelta reporter cell line. In analogy to the assay described for PPARalpha, the PPARdelta reporter cell line also contains two genetic elements, a luciferase reporter element (pdeltaM-GAL4-Luc-Zeo) and a PPARdelta fusion protein (GR-GAL4-humanPPARdelta-LBD) which mediates expression of the luciferase reporter element depending on a PPARdelta ligand. The stably and constitutively expressed fusion protein GR-GAL4-humanPPARdelta-LBD binds in the cell nucleus of the PPARdelta reporter cell line via the GAL4 protein portion to the GAL4 DNA binding motifs 5′-upstream of the luciferase reporter element which is stably integrated in the genome of the cell line. There is only little expression of the luciferase reporter gene in the absence of a PPARdelta ligand if fatty acid-depleted fetal calf serum (cs-FCS) is used in the assay. PPARdelta ligands bind and activate the PPARdelta fusion protein and thereby stimulate expression of the luciferase reporter gene. The luciferase which is formed can be detected by means of chemiluminescence via an appropriate substrate.
The production of the stable PPARdelta reporter cell line is based on a stable HEK-cell clone which was stably transfected with a luciferase reporter element. This step was already described above in the section “construction of the PPARalpha reporter cell line”. […]
The activity of PPARdelta agonists is determined in a 3-day assay in exact analogy to the procedure already described for the PPARalpha reporter cell line except that the PPARdelta reporter cell line and a specific PPARdelta agonist was used as a standard to control test efficacy.
(A reporter such as luciferase makes a cellular process visible.)

The target in a further test is T2, human PPARgamma (Homo sapiens, UniProt P37231).
T2 construct: amino acids I152-Y475; expressed in transfected cells; host or cells: HEK cells, transient transfection of pcDNA3-GAL4-humanPPARgammaLBD
T2 sequence (P37231 with tags, fused parts or gaps isoform P37231-2 limits assumed): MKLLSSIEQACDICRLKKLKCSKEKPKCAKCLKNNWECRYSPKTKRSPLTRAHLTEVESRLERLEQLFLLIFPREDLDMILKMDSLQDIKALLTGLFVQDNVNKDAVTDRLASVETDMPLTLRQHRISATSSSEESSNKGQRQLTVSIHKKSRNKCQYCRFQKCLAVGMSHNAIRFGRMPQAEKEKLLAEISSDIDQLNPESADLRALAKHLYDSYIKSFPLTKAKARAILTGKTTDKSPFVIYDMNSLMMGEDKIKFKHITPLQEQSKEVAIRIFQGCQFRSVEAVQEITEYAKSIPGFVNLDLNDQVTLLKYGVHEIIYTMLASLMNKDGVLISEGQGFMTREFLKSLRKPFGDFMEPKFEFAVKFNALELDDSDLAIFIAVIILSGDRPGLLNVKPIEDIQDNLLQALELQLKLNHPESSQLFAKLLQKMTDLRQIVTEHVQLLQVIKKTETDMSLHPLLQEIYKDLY
As to the kind of experiment: cellular PPARgamma assay (transiently transfected HEK cells, luciferase reporter). Type of test: cell-based. The following applies: GAL4-humanPPARgammaLBD. The source says: Determination of EC50 values of PPAR agonists in the cellular PPARgamma assay
A transient transfection system is employed to determine the cellular PPARgamma activity of PPAR agonists. It is based on the use of a luciferase reporter plasmid (pGL3basic-5×GAL4-TK) and of a PPARgamma expression plasmid (pcDNA3-GAL4-humanPPARgammaLBD). Both plasmids are transiently transfected into human embryonic kidney cells (HEK cells). There is then expression in these cells of the fusion protein GAL4-humanPPARgammaLBD which binds to the GAL4 binding sites of the reporter plasmid. In the presence of a PPARgamma-active ligand, the activated fusion protein GAL4-humanPPARgammaLBD induces expression of the luciferase reporter gene, which can be detected in the form of a chemiluminescence signal after addition of a luciferase substrate. As a difference from the stably transfected PPARalpha reporter cell line, in the cellular PPARgamma assay the two components (luciferase reporter plasmid and PPARgamma expression plasmid) are transiently transfected into HEK cells because stable and permanent expression of the PPARgamma fusion protein is cytotoxic.
The luciferase reporter plasmid pGL3basic-5×GAL4-TK is based on the vector pGL3basic from Promega. The reporter plasmid is prepared by cloning five binding sites of the yeast transcription factor GAL4 (each binding site with the sequence 5′-CTCGGAGGACAGTACTCCG-3′), together with a 160 bp-long thymidine kinase promoter section (Genbank Accession #AF027128) 5′-upstream into pGL3basic. 3′-downstream of the thymidine kinase promoter is the complete luciferase gene from Photinus pyralis (Genbank Accession #M15077) which is already a constituent of the plasmid pGL3basic used. The cloning and sequencing of the reporter plasmid pGL3basic-5×GAL4-TK took place in analogy to the description in Sambrook J. et. al. (Molecular cloning, Cold Spring Harbor Laboratory Press, 1989).
The PPARgamma expression plasmid pcDNA3-GAL4-humanPPARgammaLBD was prepared by first cloning the cDNA coding for amino acids 1-147 of the yeast transcription factor GAL4 (Genbank Accession #P04386) into the plasmid pcDNA3 (from Invitrogen) 3′-downstream of the cytomegalovirus promoter. Subsequently, the cDNA of the ligand-binding domain (LBD) of the human PPARgamma receptor (amino acids I152-Y475; Accession #g1480099) 3′-downstream of the GAL4 DNA binding domain. Cloning and sequencing of the PPARgamma expression plasmid pcDNA3-GAL4-humanPPARgammaLBD again took place in analogy to the description in Sambrook J. et. al. (Molecular cloning, Cold Spring Harbor Laboratory Press, 1989). […]
The activity of PPARgamma agonists is determined in a 4-day assay which is described below. […]

As for `CCCc1c(OCCCOc2ccc(OCC(=O)O)cc2)ccc(C(C)=O)c1O` [Example L-165041], the plasma cholesterol entry with PPARdelta [1] was “raises”.

In the case of `Cc1cc(SCc2sc(-c3ccc(C(F)(F)F)cc3)nc2C)ccc1OCC(=O)O` [GW501516], in the test with PPARdelta [2], the HDL-cholesterol entry is on record as “raises”, the insulin levels result was “decreases”, the “plasma LDL-cholesterol” value is listed as “decreases” and the triglycerides result is reported as “decreases”.

On to `CCOc1cc(C(F)(F)F)ccc1C(=O)N[C@@H]1CCC[C@H]1c1ccc(S(=O)(=O)Nc2nnc(C(C)C)s2)cc1` (relative stereo) [Example 2, 2-Ethoxy-N-{trans-2-[4-(5-isopropyl-[1,3,4]thiadiazol-2-ylsulfamoyl)-phenyl]-cyclopentyl}-4-trifluoromethyl-benzamide], for which the EC50 at human PPARdelta turned out to be 26 nM; at human PPARgamma, 430 nM.

Consider `CCOc1cc(C(F)(F)F)ccc1C(=O)NCC1(c2ccc(S(=O)(=O)Nc3nnc(C(C)C)s3)cc2)CCCCC1` [Example 1, 2-Ethoxy-N-{1-[4-(5-isopropyl-[1,3,4]thiadiazol-2-ylsulfamoyl)-phenyl]-cyclohexylmethyl}-4-trifluoromethyl-benzamide], for which the EC50 on human PPARdelta is 120 nM; at human PPARgamma it was > 10000 nM.

Turning to `CCOc1cc(C(F)(F)F)ccc1C(=O)N[C@@H]1CCC[C@@H]1c1ccc(S(=O)(=O)Nc2nnc(C(C)C)s2)cc1` (relative stereo) [Example 3, 2-Ethoxy-N-{cis-2-[4-(5-isopropyl-[1,3,4]thiadiazol-2-ylsulfamoyl)-phenyl]-cyclopentyl}-4-trifluoromethyl-benzamide], the EC50 was determined as 240 nM at human PPARdelta and 230 nM at human PPARgamma.

On to `CCOc1cc(C(F)(F)F)ccc1C(=O)NCC1(c2ccc(S(=O)(=O)Nc3nnc(C(C)C)s3)cc2)CCCC1` [Example 4, 2-Ethoxy-N-{1-[4-(5-isopropyl-[1,3,4]thiadiazol-2-ylsulfamoyl)-phenyl]-cyclopentylmethyl}-4-trifluoromethyl-benzamide], for which the EC50 at human PPARdelta amounted to 21 nM; on human PPARgamma, 7 nM.
